From US11065238B2, “Inhibitors of gangliosides metabolism for the treatment of motor neuron diseases” (ICM (INSTITUT DU CERVEAU ET DE LA MOELLE ÉPINIÈRE), priority 2016, dated 2021)
“Also recorded” adds a separate entry of the source.

Columns and labels:
[1] = system: mouse model of Tay Sachs disease; details: cited from earlier work
[2] = system: primary cultures of Spg11+/+ and Spg11−/− cortical neurons; assay: Neuronal death triggered by glutamate in primary cultures of cortical neurons; format: cell-based, mouse; details: glutamate 200 μM, 30 hours
Experimental: (§1) Mouse primary cultures of cortical neurons were treated with Miglustat (Tocris) from the second day in culture. Medium was changed every three days. Immunostaining were performed after six days of culture in vitro, as previously described (Murmu et al., 2011). To downregulate GM3 synthase expression, vectors expressing miRNA were produced using the Block-it kit (Life Technologies). The miRNA sequences were: […] TGTACAT (miRNA GM3S-1) (SEQ ID NO: 3), […] (miRNA GM3S-2) (SEQ ID NO: 4), […] CTGTAGA (miRNA Neu1-1) (SEQ ID NO: 5) and […] ATCGTAG (miRNA Neu1-2) (SEQ ID NO: 6). Neurons were transfected with vectors expressing the miRNA and GFP using the Neon transfection system (Life Technologies). The efficiency of the miRNA sequences was validated by transfecting NIH-3T3 cells and performing quantitative RT-PCR using a LightCycler 480 apparatus (Roche) following the manufacturer's instructions. […] Quantification of gangliosides levels was performed either with an automated ArrayScan XTI apparatus (Thermo-Fisher) using the General Intensity Measurement protocol, or with ImageJ on image acquired on a Nikon Eclipse Ti-U microscope. […] Colocalization of ganglioside staining with lysosomes was quantified using ImageJ. A mask was made from the Lamp1 staining channel and the corresponding ganglioside fluorescence was quantified as the percentage of total ganglioside fluorescence in every cell. […]

[3] = system: GM2 in the telencephalon of zebrafish morphants; assay: Zebrafish zspg11 model: GM2 immunostaining in the telencephalon; format: in vivo; details: for GM2 immunostaining in the telencephalon: injection of 1.2 pmol morpholino vs mismatch morpholino
Experimental: (§2) Modeling of Spg11 pathology in zebrafish was performed as described previously (Martin, 2012). The knock-down of zspg11 was performed using a morpholino targeting a splice donor site, zspg11spl (5′-[…]-3′—SEQ ID NO: 88). The control morpholino mmzspg11spl (5′-ACgAATgATAGCcTCTCGTAgCgTC-3′—SEQ ID NO: 89) containing five mismatch nucleotides was used to distinguish specific phenotypic effects resulting from the knock-down of zspg11 from non-specific effects due to injection or morpholino toxicity. One nl of 1.2 mM solution of zspg11spl or mmzspg11spl were injected into the yolk of one- to two-cell stage embryos. After injection, embryos were maintained at 28° C. in E3 medium, containing miglustat (Tocris Bioscience) at 100 or 300 uM or DMSO for control groups. At 24 hpf they were manually dechorionated using fine forceps. […] To quantify motor activity, we monitored the touch-evoked escape response at 48 hours post-fertilization in fishes with no obvious developmental abnormalities as previously described (Martin, 2012). Images were acquired at 500 images per sec. Tracking of the touch evoked escape response was performed using the Image J manual tracking plugin. Assessment of GM2 ganglioside levels was performed by whole-mount in vivo immunohistochemistry using 48 hpf embryos fixed in 4% paraformaldehyde in PBS for 2 h at room temperature. Embryos were washed 3 times (5 min each) in PBS-0.1% Triton X-100 (PBST). Embryos were blocked for 1 h in 5% normal goat serum in PBS containing 1% DMSO and 1% Triton X-100 (PBDT), then incubated overnight at 4° C. in blocking solution containing the GM2 primary antibody. […] Larvae were oriented in the same position for image capture to minimize potential biases in quantification. […] Using ImageJ software, the maximum intensity projections of z-stacks were used for quantification of fluorescence in the telencephalon. Mean and variance of the fluorescence intensity were quantified for each morphant in a square of 100 pixels per 100 pixels.

p62 = assay: Western blot analysis of p62 levels in cortical neurons; format: cell-based, mouse
[4] = system: autolysosomes in Spg11+/+ and Spg11−/− neurons; assay: Proportion of Lamp1-stained lysosomes also positive for p62 (autolysosomes) in cultured cortical neurons; format: cell-based, mouse; details: miglustat 100 μM, six days in vitro
Experimental: as §1

[5] = system: GM2 and GM3 gangliosides in primary cultures of cortical neurons; assay: Fluorescence intensity of GM2 / GM3 immunostaining in primary cultures of cortical neurons; format: cell-based, mouse; details: for increase in overall GM2 levels: glutamate treatment
Experimental: Mouse primary cultures of cortical neurons were treated with Miglustat (Tocris) from the second day in culture. Medium was changed every three days. Immunostaining were performed after six days of culture in vitro, as previously described (Murmu et al., 2011). To downregulate GM3 synthase expression, vectors expressing miRNA were produced using the Block-it kit (Life Technologies). The miRNA sequences were: […] TGTACAT (miRNA GM3S-1) (SEQ ID NO: 3), […] (miRNA GM3S-2) (SEQ ID NO: 4), […] CTGTAGA (miRNA Neu1-1) (SEQ ID NO: 5) and […] ATCGTAG (miRNA Neu1-2) (SEQ ID NO: 6). Neurons were transfected with vectors expressing the miRNA and GFP using the Neon transfection system (Life Technologies). The efficiency of the miRNA sequences was validated by transfecting NIH-3T3 cells and performing quantitative RT-PCR using a LightCycler 480 apparatus (Roche) following the manufacturer's instructions. […] Quantification of gangliosides levels was performed either with an automated ArrayScan XTI apparatus (Thermo-Fisher) using the General Intensity Measurement protocol, or with ImageJ on image acquired on a Nikon Eclipse Ti-U microscope. […] Colocalization of ganglioside staining with lysosomes was quantified using ImageJ. A mask was made from the Lamp1 staining channel and the corresponding ganglioside fluorescence was quantified as the percentage of total ganglioside fluorescence in every cell. […] To quantify neuronal death, 30 hours after glutamate treatment all neurons were labeled with 100 nM Cell tracker Deep Red (Life Technologies) and dead cells were labeled by propidium iodide (5 μM). […] The number of Tuj-1-positive cells per well was quantified with an automated ArrayScan XTI apparatus (Thermo-Fisher) using the compartmental analysis protocol. Neuronal death was quantified by comparing glutamate-treated and non-treated neurons.

[6] = system: zebrafish zspg11 morphants; assay: Zebrafish zspg11 model: phenotype of morphants 48 hours post fertilization; format: in vivo; details: 48 hpf; for motor phenotype of morphants: injection of 1.2 pmol morpholino vs mismatch or non-injected
Experimental: as §2

[7] = system: zebrafish zspg11 morphants; assay: Zebrafish zspg11 model: touch-evoked escape response; format: in vivo; details: for distance travelled following a touch-evoked escape response: treated with miglustat; for swimming / touch-induced escape: injection of 1.2 pmol morpholino vs mismatch morpholino
Experimental: Modeling of Spg11 pathology in zebrafish was performed as described previously (Martin, 2012). The knock-down of zspg11 was performed using a morpholino targeting a splice donor site, zspg11spl (5′-[…]-3′—SEQ ID NO: 88). The control morpholino mmzspg11spl (5′-ACgAATgATAGCcTCTCGTAgCgTC-3′—SEQ ID NO: 89) containing five mismatch nucleotides was used to distinguish specific phenotypic effects resulting from the knock-down of zspg11 from non-specific effects due to injection or morpholino toxicity. One nl of 1.2 mM solution of zspg11spl or mmzspg11spl were injected into the yolk of one- to two-cell stage embryos. After injection, embryos were maintained at 28° C. in E3 medium, containing miglustat (Tocris Bioscience) at 100 or 300 uM or DMSO for control groups. At 24 hpf they were manually dechorionated using fine forceps. […] To quantify motor activity, we monitored the touch-evoked escape response at 48 hours post-fertilization in fishes with no obvious developmental abnormalities as previously described (Martin, 2012). Images were acquired at 500 images per sec. Tracking of the touch evoked escape response was performed using the Image J manual tracking plugin. Assessment of GM2 ganglioside levels was performed by whole-mount in vivo immunohistochemistry using 48 hpf embryos fixed in 4% paraformaldehyde in PBS for 2 h at room temperature. Embryos were washed 3 times (5 min each) in PBS-0.1% Triton X-100 (PBST). Embryos were blocked for 1 h in 5% normal goat serum in PBS containing 1% DMSO and 1% Triton X-100 (PBDT), then incubated overnight at 4° C. in blocking solution containing the GM2 primary antibody. After 4 washes in PBST at room temperature, embryos were incubated with an anti IgM antibody coupled to Alexa-488 (Thermo Fishser), overnight at room temperature in PBDT. Before observation, embryos were washed 3 times in PSBT and mounted in a drop of Fluoromount™ Aqueous Mounting Medium (Sigma Aldrich). Whole-mount embryos were imaged on a confocal microscope (Leica SP8, 40X, NA 0.8). Larvae were oriented in the same position for image capture to minimize potential biases in quantification. Image stacks were collected with a step-size of 0.35 μm. Using ImageJ software, the maximum intensity projections of z-stacks were used for quantification of fluorescence in the telencephalon. Mean and variance of the fluorescence intensity were quantified for each morphant in a square of 100 pixels per 100 pixels.

cultured neurons = details: glutamate treatment; cited from earlier work

## CCCCN1C[C@H](O)[C@@H](O)[C@H](O)[C@H]1CO [Miglustat, N-butyldeoxynojirimycin]
[1]
  brain levels of GM2: decrease brain levels of GM2
[2]
  neuronal death induced by glutamate: prevented neuronal death induced by glutamate; also recorded: decreased the neuronal death induced by glutamate in a dose-dependent manner
[3]; morphants injected with zspg11spl morpholino, treated with miglustat, 48 hpf
  GM2 immunostaining intensity (mean and variance) in the telencephalon: corrected when morphants were treated with miglustat; also recorded: corrected in larvae treated by miglustat
p62; Spg11−/− neurons, miglustat 100 μM, glutamate 200 μM for 24 hours, p62 normalized to tubulin
  glutamate-induced increase of p62 levels: inhibited
[4]
  proportion of lysosomes positive for the p62 marker: strongly decreased
[5]; control and Spg11−/− cortical neurons, six days in vitro
  levels of GM2 (fluorescence intensity of GM2 immunostaining): significantly decreased the levels of GM2 in a dose-dependent manner
[6]; larvae injected with zspg11spl morpholino, miglustat 100 or 300 uM in medium
  proportion of paralyzed larvae: decreased the proportion of paralyzed morphants; also recorded: significantly reduced in a dose-dependent manner
[7]; morphants injected with mismatch morpholino
  distance travelled following a touch-evoked escape response: no effect
[7]; morphants injected with zspg11spl morpholino, 48 hpf
  distance travelled following a touch-evoked escape response: corrected when treated by miglustat; also recorded: significantly corrected

## N[C@@H](CCC(=O)O)C(=O)O [Glutamate, glutamate]
p62; Spg11−/− neurons treated with glutamate (200 μM) for 24 hours
  p62 levels: significantly increased
p62; control neurons treated with glutamate (200 μM) for 24 hours
  p62 levels: no difference
Cultured neurons
  ganglioside levels: increase ganglioside levels
[5]; Spg11−/− neurons, p=0.007, n>10
  increase in overall GM2 levels: 15.7±3.9%
[5]; control neurons, p=0.02, n>9
  increase in overall GM2 levels: 20.0±4.6%

## zspg11spl: morpholino targeting a splice donor site for knock-down of zspg11, 5′-ACCAATCATAGCGTCTCGTACCCTC-3′ (all phosphorodiamidate morpholino (PMO))
[3]
  GM2 immunostaining in the telencephalon: increased the mean and variance of GM2 immunostaining intensity
[3]; listed as zspg11 morpholinos
  GM2 immunostaining in the telencephalon: stronger GM2 staining
[6]
  motor phenotype of morphants: large proportion of paralyzed or slowly swimming phenotypes
[6]; listed as zspg11 morpholinos
  motor phenotype of morphants: either a loss of motility or a paralysis
[7]
  swimming / touch-induced escape: impaired the swimming
[7]; listed as zspg11 morpholinos
  swimming / touch-induced escape: significantly shorter touch-induced escapes
